Values quoted from earlier work in US20070142355A1, “Association of a sinus node If curent inhibitor and an angiotensin converting enzyme inhibitor, and pharmaceutical compositions containing it” (LES LABORATOIRES SERVIER, priority 2005, published 2007).

Details: ivabradine alone, as generally established in clinical trials

## COc1cc2c(cc1OC)CC(=O)N(CCCN(C)C[C@H]1Cc3cc(OC)c(OC)cc31)CC2 [ivabradine, 3-{3-[{[(7S)-3,4-dimethoxy-bicyclo[4.2.0]octa-1,3,5-trien-7-yl]methyl}(methyl)amino]propyl}-7,8-dimethoxy-1,3,4,5-tetrahydro-2H-3-benzazepin-2-one]
  slight increase in systolic arterial pressure: ~1 mmHg
